US5171746A, “Thiazole and imidazole derivatives and antiulcer composition containing same” (priority 1990, dated 1992)
In brackets after ≈: the same amount, converted by molar mass.

Columns and labels:
[1] = system: Helicobacter pylori HI-0001; assay: Antimicrobial activity, agar plate dilution method (strain HI-0001); format: cell-based; conditions: HI0001, 48 h, two days at 37° C., read-out: MINIMUM GROWTH INHIBITION CONCENTRATION
Description: (§1) Helicobacter pylori is Gram negative microaerophile which has been recently isolated from human tunica mucosa ventriculi and seems to serve for pathopoiesis and recurrence of ulcer in alimentary canal. The compounds of formula (I) show an antimicrobial activity to inhibit the growth of Helicobacter pylori.
(§2) The media used were that of Muller-Hinton liquid medium (BBL) containing 7% horse serum, and of Heart-Infusin agar medium (Difco) containing 5% horse defibrinized blood. The culture was incubated for two days at 37° C. using Gaspack (BBL) without a catalyst.

[2] = system: Helicobacter pylori HI-0015; assay: Antimicrobial activity, agar plate dilution method (strain HI-0015); format: cell-based; conditions: HI0015, 48 h, two days at 37° C., read-out: MINIMUM GROWTH INHIBITION CONCENTRATION
Description: as §1, §2

[3] = system: Water-immersion induced stress ulcer; assay: Water-immersion induced stress ulcer; format: in vivo, Wister male rats; conditions: rats, single dose 30 mg/kg in 0.5% CMC one hour prior to stressing (water immersion, 6 h); for inhibition in vivo at 30 mg/kg: Rattus norvegicus
Method: Wister male rats (11-week age) fasted for 18 hours were placed in a restraint cage, which was in turn immersed to a depth of the pectoral region in water at 20 to 22° C. to leave the rats under stress for six hours. Then, the rats were drawn up from the water and put down by vertebral dislocation. Afterwards, the stomach was removed, infused with 5 ml of a 5% aqueous solution of formalin and was wholly immersed in the same solution for 30 minutes for fixation. The fixed sample was dissected along the curvature ventriculi major, and the ulcer regions were measured along their major length (in mm) by means of slide calipers. The total sum of the measurements per rat is a value of ulcer index.
The compounds under test shown in TABLE 3, suspended in 0.5% carboxymethylcellulose (CMC), were administered to the rats at a single dose of 30 mg/kg body weight of the compound one hour prior to the stressing. To a control group, only 0.5% CMC was administered. The antiulcer activity was calculated according to the following equation: [formula]

Acute toxicity = format: in vivo; conditions: mice, three per group
Ethanol-induced ulcer = assay: Ethanol-induced ulcer; format: in vivo, Donryu masculine rats; conditions: rats; 100% ethanol 5 ml/kg orally; compound in 0.5% CMC orally at 5 ml/kg; one hour
Method: Five (5) ml/kg of 100% ethanol was orally administered to Donryu masculine rats fasted for 48 hours and dehydrated for 24 hours. Then, the compounds under test, suspended in 0.5% CMC, were orally administered to the rats at a dose of 5 ml/kg body weight. One hour later, the rats were put down in a similar manner as mentioned above to remove and treat the stomach.

CC1(C)S[C@@H]2[C@H](NC(=O)[C@H](N)c3ccccc3)C(=O)N2[C@H]1C(=O)O [Aminobenzylpenicillin, reference compound]
MIC [1]: 0.025 µg/mL (≈ 0.0715 µM)
MIC [2]: 0.2 µg/mL (≈ 0.572 µM)

CCOCC[S+]([O-])c1nc(-c2cccnc2)cs1 (stereo not shown) [Example 2, 2-[(2-ethoxyethyl)sulfinyl]-4-(3-pyridyl)thiazole]
inhibition in vivo at 30 mg/kg [3]: 72.5%

CC(C)N(CC[S+]([O-])c1nc(-c2cccnc2)cs1)C(C)C (stereo not shown) [Example 8]
inhibition in vivo at 30 mg/kg [3]: 70.5%

CCOCC[S+]([O-])c1ncc(-c2ccccc2)s1 (stereo not shown) [Example 12, 2-[(2-ethoxyethyl)sulfinyl]-5-phenylthiazole]
inhibition in vivo at 30 mg/kg [3]: 52.5%

CCOCC[S+]([O-])c1nc(-c2ccsc2)cs1 (stereo not shown) [Example 14, 2-[(2-ethoxyethyl)sulfinyl]-4-(3-thienyl)thiazole]
inhibition in vivo at 30 mg/kg [3]: 62.7%
MIC [1]: 50 µg/mL (≈ 174 µM)
MIC [2]: 100 µg/mL (≈ 348 µM)

CCNC(=O)NCC[S+]([O-])c1nc2cc(Cl)ccc2s1 (stereo not shown) [Example 22, N-(5-chlorobenzothiazol-2-yl)sulfinylethyl--N'-ethylurea]
inhibition in vivo at 30 mg/kg [3]: 63.1%

O=C(NCCCl)NCCSc1nc2cc(Cl)ccc2s1 [Example 23, N-(5-chlorobenzothiazol-2-yl)thioethyl--N'-(2-chloroethyl)urea]
MIC [1]: 12.5 µg/mL (≈ 35.7 µM)
MIC [2]: 12.5 µg/mL (≈ 35.7 µM)

O=C(NCCCl)NCC[S+]([O-])c1nc2cc(Cl)ccc2s1 (stereo not shown) [Example 24, N-(5-chlorobenzothiazol-2-y1)sulfinylethyl--N'-(2-chloroethyl)urea]
inhibition in vivo at 30 mg/kg [3]: 70.1%

CCNC(=S)NCCSc1nc2cc(Cl)ccc2s1 [Example 25, N-(5-chlorobenzothiazol-2-yl)thioethyl--N'-ethylthiourea]
inhibition in vivo at 30 mg/kg [3]: 64.2%
MIC [1]: 0.025 µg/mL (≈ 0.0753 µM)
MIC [2]: 0.025 µg/mL (≈ 0.0753 µM)

CCN=C(NC#N)NCCSc1nc2cc(Cl)ccc2s1 [Example 27, N-(5-chlorobenzothiazol-2-yl)thioethyl--N'-cyano--N"-ethylguanidine]
MIC [1]: 12.5 µg/mL (≈ 36.8 µM)
MIC [2]: 12.5 µg/mL (≈ 36.8 µM)

CCN=C(NC#N)NCC[S+]([O-])c1nc2cc(Cl)ccc2s1 (stereo not shown) [Example 28, N-(5-chlorobenzothiazol-2-yl)sulfinylethyl--N'-cyano--N"-ethylguanidine]
inhibition in vivo at 30 mg/kg [3]: 57%

Clc1ccc2sc(SCCN3CCOCC3)nc2c1 [Example 31, 5-chloro-2-[(2-morpholinoethyl)thio]benzothiazole]
Acute toxicity (deaths) (Acute toxicity; intraperitoneal dose of 100 mgkg): none of the animals were sacrificed
Acute toxicity (deaths) (Acute toxicity; peroral dose of 300 mgkg): none of the animals were sacrificed

[O-][S+](CCN1CCOCC1)c1nc2cc(Cl)ccc2s1 (stereo not shown) [Example 32, 5-chloro-2-[(2-morpholinoethyl)sulfinyl]benzothiazole]
inhibition in vivo at 30 mg/kg [3]: 83.1%
MIC [1]: 1.56 µg/mL (≈ 4.71 µM)
MIC [2]: 3.13 µg/mL (≈ 9.46 µM)
depression of erosion (Ethanol-induced ulcer): 93.0%

[O-][S+](CCN1CCOCC1)c1nc2cccc(Cl)c2s1 (stereo not shown) [Example 35, 7-chloro-2-[(2-morpholinoethyl)sulfinyl]benzothiazole]
inhibition in vivo at 30 mg/kg [3]: 72.1%
MIC [1]: 3.13 µg/mL (≈ 9.46 µM)
MIC [2]: 6.25 µg/mL (≈ 18.9 µM)

[O-][S+](CCN1CCOCC1)c1nc2ccc(Cl)cc2s1 (stereo not shown) [Example 37, 6-chloro-2-[(2-morpholinoethyl)sulfinyl]benzothiazole]
inhibition in vivo at 30 mg/kg [3]: 78%
MIC [1]: 3.13 µg/mL (≈ 9.46 µM)
MIC [2]: 6.25 µg/mL (≈ 18.9 µM)

CN1CCCC1CC[S+]([O-])c1nc2cc(Cl)ccc2s1 (stereo not shown) [Example 47, 5-chloro-2-{[2-(N-methylpyrrolidin-2-Y1)ethyl]sulfinyl}benzothiazole]
MIC [1]: 0.39 µg/mL (≈ 1.19 µM)
MIC [2]: 3.13 µg/mL (≈ 9.52 µM)

[O-][S+](CCN1CCOCC1)c1nc2ccc(Cl)cc2[nH]1 (stereo not shown) [Example 49, 5-chloro-2-[(2-morpholinoethyl)sulfinyl]benzimidazole]
inhibition in vivo at 30 mg/kg [3]: 63.6%

CCOCC[S+]([O-])c1nc2cccc(Cl)c2s1 (stereo not shown) [Example 61, 7-chloro-2-[(2-ethoxyethyl)sulfinyl]benzothiazole]
inhibition in vivo at 30 mg/kg [3]: 61.8%

CCOCC[S+]([O-])c1nc2ccc(Cl)cc2s1 (stereo not shown) [Example 63, 6-chloro-2-[(2-ethoxyethyl)sulfinyl]benzothiazole]
inhibition in vivo at 30 mg/kg [3]: 76.5%
MIC [1]: 3.13 µg/mL (≈ 10.8 µM)
MIC [2]: 6.25 µg/mL (≈ 21.6 µM)

[O-][S+](CCOCCCl)c1nc2cc(Cl)ccc2s1 (stereo not shown) [Example 67, 5-chloro-2-{[2-(2-chloroethoxy)ethyl]sulfinyl}benzothiazole]
Inhibition (%) [3]: 53.3%

CCOCC[S+]([O-])c1nc2ccc(OC)cc2[nH]1 (stereo not shown) [Example 72, 5-methoxy-2-[(2-ethoxyethyl)sulfinyl]benzimidazole]
inhibition in vivo at 30 mg/kg [3]: 65.6%

CCOCC[S+]([O-])c1nc2cc(C(F)(F)F)ccc2s1 (stereo not shown) [Example 76, 5-trifluoromethyl-2-[(2-ethoxyethyl)sulfinyl]benzothiazole]
inhibition in vivo at 30 mg/kg [3]: 61.3%

CCOCC[S+]([O-])c1nc2cc([N+](=O)[O-])ccc2s1 (stereo not shown) [Example 78, 5-nitro-2-[(2-ethoxyethyl)sulfinyl]benzothiazole]
inhibition in vivo at 30 mg/kg [3]: 60.7%
MIC [1]: 6.25 µg/mL (≈ 20.8 µM)
MIC [2]: 6.25 µg/mL (≈ 20.8 µM)

CC1COc2c(N3CCN(C)CC3)c(F)cc3c(=O)c(C(=O)O)cn1c23 (stereo not shown) [Ofloxacin, reference compound]
MIC [1]: 0.78 µg/mL (≈ 2.16 µM)
MIC [2]: 0.78 µg/mL (≈ 2.16 µM)

COc1ccc2[nH]c([S+]([O-])Cc3ncc(C)c(OC)c3C)nc2c1 (stereo not shown) [Omeprazole, reference compound]
inhibition in vivo at 30 mg/kg [3]: 90%
